# “And” between values parts separate entries of the source, which are not always exact repeats. Equal entries are not always repeated. Where two headings read alike, the source gives them in different places. Marks after values point to notes of the source that are not given here.
# How the values were obtained:
# B16F10 melanoma cells [1] = assay: Motility assay in blind-well migration chambers with gelatin-coated filter; format: cell-based; conditions: for Motility with Verapamil (mean number of cells per filter): n = 2 filters
# [2] = tested on: A2058 human melanoma cells; conditions: cited from earlier work
# B16F10 cells [3] = assay: Cell growth after 12 hour Gd^3+ exposure and washout; format: cell-based; conditions: Gd^3+ 20 μM in RPMI-E2 12 hours, washed, then growth medium without Gd^3+
# Description: The potential long term effects of Gd^3+ on cell growth were determined. […] The cell growth was observed after the Gd^3+ was washed from the cells.
# B16F10 melanoma cells [4] = assay: Microscopic examination of cell morphology; format: cell-based; conditions: 4 hours
# Description: Cell morphology was examined under conditions that were used in the motility assays. B16F10 melanoma cells were cultured directly on gelatin coated glass cover slips (0.1% gelatin for 2 hours and then air dried) for 24 hours under standard cell culture conditions. Culture media was then removed and the cells were washed twice with phosphate buffered saline (PBS) before being exposed to either 0.54 mM, 5.4 mM, or 54 mM K^+ in iso-osmotic saline solutions that were based on the electrolyte composition of RPMI-1640 media. Some solutions also contained GdCl3 or TbCl3 in a concentration of 20 μM. The cells were incubated at 5% CO2 and 37° C. for 4 hours before cells were photographed using an Olympus (IMT-2) inverted microscope.
# In order to examine the effects of Gd^3+ and extracellular K^+ concentration on the morphology of the cells, B16F10 melanoma cells were grown under normal conditions on gelatin-coated glass coverslips. The cells were then washed twice with PBS and placed in solutions containing the following concentrations of K^+ and Gd^3+ for exposure periods of 4 hours: […]
# [5] = tested on: voltage-gated channels that control quantal neurotransmitter release; conditions: Gd^3+ up to 100 μM; cited from earlier work
# B16F10 cells [6] = assay: Trypan blue exclusion assay (cell viability)
# Description: A test was run to determine the toxicity of Gd^3+ on cells when exposed for seven hours. B16F10 cells were incubated for 12 hours with Gd^3+ at a concentration of 20 μM in the RPMI-E2 solution. A different batch of B16F10 cells were incubated for 12 hours without Gd^3+ in the RPMI-E2 solution. The cells were then examined with a Trypan blue exclusion assay.
# [7] = GdCl3 20 μM, RPMI-E2, normal K^+ and Ca^2+, seven hours, two independent runs
# [8] = Gd^3+ 20 μM in RPMI-E2, 12 hours
compound,measurement,setting,value
[Ca+2] [Ca^2+],increase in the motility of the cells,B16F10 melanoma cells [1]; elevated Ca^2+ (4 mM) vs normal (0.4 mM),~20%
same,Motility (mean number of cells per filter),"B16F10 melanoma cells [1]; extracellular Ca^2+ 0.4 mM (RPMI-E, normal), no bFGF",78 ± 4^b cells per filter
same,Motility (mean number of cells per filter),"B16F10 melanoma cells [1]; extracellular Ca^2+ 4.0 mM (RPMI-E4Ca, elevated), no bFGF",100 ± 6 cells per filter
[Cl-].[Cl-].[Co+2] [CoCl2],inhibition of cell motility,B16F10 melanoma cells [1],approximately 87%
same,Motility (mean number of cells per filter),B16F10 melanoma cells [1]; 2 mM,43 ± 4 cells per filter
same,inhibition of tumor cell motility,[2],completely ineffective
[Cl][Gd]([Cl])[Cl] [GdCl3],Motility (mean number of cells per filter),"B16F10 melanoma cells [1]; Gd 20 μM, K^+ 0.54 mM (RPMI-E2 low K^+)",240 ± 40^b cells per filter
same,Motility (mean number of cells per filter),"B16F10 melanoma cells [1]; Gd 20 μM, K^+ 54.0 mM (RPMI-E2 high K^+)",113 ± 10 cells per filter
same,inhibition of cell motility,"B16F10 melanoma cells [1]; GdCl3 20 μM, High Ca^2+ HEPES Ringer solution (Example 1)",71%
same,Motility (mean number of cells per filter),"B16F10 melanoma cells [1]; GdCl3 20 μM, High Ca^2+ HEPES Ringer solution, 2 h preincubation + 5 h assay, bFGF",95 ± 6 cells per filter
same,Motility (mean number of cells per filter),B16F10 melanoma cells [1]; [7],33 ± 6 cells per filter and 50 ± 10 cells per filter
same,reduction of motility,B16F10 melanoma cells [1]; [7],73% and 75%
same,inhibition of cell motility,"B16F10 melanoma cells [1]; Gd^3+ 20 μM, 0.54 mM K^+",83%
same,inhibition of cell motility,"B16F10 melanoma cells [1]; Gd^3+ 20 μM, 54 mM K^+",90.5%
same,effect on cell growth after washout,B16F10 cells [3],No obvious inhibitory effect on cell growth
same,cell morphology,"B16F10 melanoma cells [4]; 20 μM Gd^3+, low K^+ (0.54 mM)",rounded and flattened cells with prominent vacuoles
same,cell morphology,"B16F10 melanoma cells [4]; 20 μM Gd^3+, normal K^+ (5.4 mM)","larger, rounded cells devoid of pseudopodia"
same,cell morphology,B16F10 melanoma cells [4]; 20 μM in bathing solution,the cells had flattened and spread further
same,effect on voltage-gated channels,[5],no effect
same,cells stained blue,B16F10 cells [6]; [8],Less than 1%
same,viability versus cells not treated,B16F10 cells [6]; [8],no difference in viability
same,Trypan Blue exclusion of vacuolated cells (membrane integrity),"B16F10 cells [6]; after 20 μM Gd^3+, low K^+, 4 hours",vacuolated cells excluded dye
[K+] [K^+],Motility (mean number of cells per filter),"B16F10 melanoma cells [1]; K^+ 0.54 mM, absence of Gd",1387 ± 103^b cells per filter
same,Motility (mean number of cells per filter),"B16F10 melanoma cells [1]; K^+ 2.75 mM, absence of Gd",1164 ± 1006 cells per filter
same,Motility (mean number of cells per filter),"B16F10 melanoma cells [1]; K^+ 3.87 mM, absence of Gd",591 ± 40 cells per filter
same,Motility (mean number of cells per filter),"B16F10 melanoma cells [1]; K^+ 5.4 mM (normal, RPMI-E2), absence of Gd",475 ± 20 cells per filter
same,Motility (mean number of cells per filter),"B16F10 melanoma cells [1]; K^+ 10.0 mM, absence of Gd",578 ± 15 cells per filter
same,Motility (mean number of cells per filter),"B16F10 melanoma cells [1]; K^+ 16.25 mM, absence of Gd",494 ± 49 cells per filter
same,Motility (mean number of cells per filter),"B16F10 melanoma cells [1]; K^+ 22.0 mM, absence of Gd",558 ± 25 cells per filter
same,Motility (mean number of cells per filter),"B16F10 melanoma cells [1]; K^+ 27.5 mM, absence of Gd",471 ± 57 cells per filter
same,Motility (mean number of cells per filter),"B16F10 melanoma cells [1]; K^+ 35.0 mM, absence of Gd",646 ± 65 cells per filter
same,Motility (mean number of cells per filter),"B16F10 melanoma cells [1]; K^+ 54.0 mM, absence of Gd",1188 ± 50 cells per filter
same,cell morphology,"B16F10 melanoma cells [4]; high K^+ (54 mM), no Gd^3+",rounder and exhibited pseudopodia that appeared blunted
same,cell morphology,"B16F10 melanoma cells [4]; low K^+ (0.54 mM), no Gd^3+",slightly more cells were observed with distinct lamellipodia
"[Cl][Tb]([Cl])[Cl] [Tb^3+, TbCl3]",cell morphology,B16F10 melanoma cells [4]; 20 μM in bathing solution,the cells had flattened and spread further
"COc1ccc(CCN(C)CCCC(C#N)(c2ccc(OC)c(OC)c2)C(C)C)cc1OC (centres unmarked) [Verapamil, verapamil, reference compound]",Motility with Verapamil (mean number of cells per filter),"B16F10 melanoma cells [1]; verapamil 100 μM, 0.5 mM K^+",1116 cells per filter
same,Motility with Verapamil (mean number of cells per filter),"B16F10 melanoma cells [1]; verapamil 100 μM, 5 mM K^+",434^b cells per filter and 519 cells per filter
same,Motility with Verapamil (mean number of cells per filter),"B16F10 melanoma cells [1]; verapamil 100 μM, 50 mM K^+",1100 cells per filter
same,effect on motility,"B16F10 melanoma cells [1]; verapamil 100 μM, control, high K^+ and low K^+ conditions",did not reduce motility in a way corresponding to the reduction produced by Gd^3+ and Co^2+
bFGF: Basic fibroblast growth factor used to enhance motility,Motility (mean number of cells per filter),B16F10 melanoma cells [1]; bFGF 25 ng/ml in serum free RPMI-1640 in top well,180 ± 30 cells per filter
same,increase in the motility of melanoma cells,B16F10 melanoma cells [1]; bFGF 25 ng/ml in serum free RPMI-1640 vs no bFGF,three-fold increase
